Measurements taken from publication PMC6107105, “Update on drug development targeting parasite cysteine proteases” (PLoS Neglected Tropical Diseases, 2018).

Experiments:
[1] = test system: Sprague-Dawley rats; assay: 14-day GLP toxicity study in Sprague-Dawley rats (SRI study M602-08); assay type: in vivo
[2] = test system: dogs; assay: 7-day non-GLP toxicity study in dogs (SRI study M138-00); assay type: in vivo; settings: orally as solid in gelatin capsules, 100 mg/kg daily for 7 days, 2 dogs
[3] = design: species or system NHPs; settings: in vivo, 200 mg/kg
[4] = test system: Sprague-Dawley rats; assay: Acute intravenous non-GLP toxicity study in rats (SRI study M001-98); assay type: in vivo; settings: male and female Sprague-Dawley rats
[5] = test system: cynomolgus monkeys; assay: Pilot multiple dose safety/pharmacokinetic 7-day non-GLP study in cynomolgus monkeys (SRI study M158-01); assay type: in vivo; settings: 200 mg/Kg once daily for 7 days
[6] = test system: rats; assay: 7-Day non-GLP Toxicity Study in Rats (SRI study M587-08); assay type: in vivo; settings: 50 or 150 mg/Kg/day for 7 days

CN1CCN(C(=O)N[C@@H](Cc2ccccc2)C(=O)N[C@H](/C=C/S(=O)(=O)c2ccccc2)CCc2ccccc2)CC1.Cl [K777 HCl]
mortality or treatment-related adverse clinical signs ([1]; 14-day, any dose level, SRI study M602-08): No mortality or treatment-related adverse clinical signs were observed following the administration of K777 HCl at any dose level.
changes in clinical chemistry parameters (total protein, potassium, phosphorus, creatinine increases; blood urea nitrogen decrease) ([1]; rat, in vivo): not considered biologically significant
effects on hematology, urinalysis, or ophthalmology parameters ([1]; rat, in vivo): no treatment-related adverse effects
histopathology ([1]; rat, in vivo): No treatment-related histopathological abnormalities
mortality or morbidity [2]: K777 HCl was administered orally as a solid in gelatin capsules to 2 dogs (1 male and 1 female) at 100 mg/kg daily for 7 days. No mortality or morbidity was observed in this study.
AUC [3]: 32500 ng·h/mL
Cmax [3]: 4500 ng/mL
Tmax [3]: 4 h
half-life [3]: ~4 h
dose producing mortality and adverse clinical signs [4]: K777 HCl administered IV to male and female Sprague-Dawley rats produced mortality and adverse clinical signs at 150 mg/Kg and higher.
mortality or morbidity [5]: No mortality or morbidity was observed following the administration of K777 HCl at 200 mg/Kg once daily for 7 days.
tolerability ([6]; male and female rats, SRI study M587-08): well tolerated
liver effects at the doses employed ([6]; rats): mild and transient
target organ of toxicity ([6]; rats): liver
